Source: patent US12595269B2, “Morpholine-like monoamine releasers” (Solvonis Therapeutics Ireland Holdings Limited, priority 2022, dated 2026)

Experiment: In vitro intrinsic clearance in rat liver microsomes
Assay type: in vitro ADME
Conditions: pH 7.4, read-out: Intrinsic clearance (μL/min/mg protein) rat
Experimental: Methods and Procedure: The general procedure involves incubating test compounds with liver microsomes and subsequently detecting the compounds to determine intrinsic clearance. Clearance was estimated from the rate of depletion k (min−1), the volume of the incubation V (mL), and the amount of microsomal proteins in the incubation M (mg). Intrinsic clearance is defined by the following equation: Clint k*V/M.
Values for CLint are expressed as μL/min/mg protein. Verapamil and dextromethorphan were used as positive controls for CYP3A4 and CYP2D6 isoforms, respectively, to confirm metabolic activity.
Positive control and compounds for testing were dissolved in an appropriate solvent to obtain a 10 mM stock solution, which was diluted to achieve a final working solution, as detailed in the above table. Stock solutions were usually prepared at 10 mM DMSO, whereas working solutions were made by adding 5 μL 10 mM DMSO+995 μL MeOH. However, this concentration can be varied, e.g., when the test item is not soluble in the selected solvent.
Prior to experimentation, frozen liver microsomes were thawed in a water bath at 37° C. and kept on ice until use. The microsomes were then diluted with 50 mM potassium phosphate buffer pH 7.4 to a protein concentration of 0.56 mg/mL. To prepare test and control items in final incubation conditions, 5 μL of test compound and positive control working solutions were added to 445 μL of microsomes incubation mixture at 0.56 mg/mL and 50 μL of regenerating system.
As it relates to the automated incubation procedure for microsomes incubation, the following procedure was followed: • 1. 150 μL of quenching solution (ACN containing an appropriate Internal Standard, i.e. Rolipram and Diclofenac for positive and negative ion mode, respectively) was manually dispensed or dispensed by using the Hamilton system in each well of 96 deep well 1 mL plates. • 2. 800-1000 μL-aliquots of NADPH regenerating system were pre-warmed at 37° C. for 5 minutes. • 3. 5 μL of 50 μM test items and control were added to 445 μL of the 0.56 mg/mL microsomes solution, and the incubation mixture was pre-warmed in a 96 deep well 2 mL plate (incubation plate) at 37° C. for 5 minutes. • 4. […] Metabolic stability was calculated from the ratio of peak area of the remaining test or control item with internal standard versus time. • 9. […] The integrated peak areas of the test and control items at the selected time points were divided by the respective peak areas of the IS, and the percent of parent remaining was calculated by normalizing the peak area ratio of parent to IS at 0 min. Observed rate constant (kobs) for parent degradation was calculated by determining the slope of the line of the graph of the natural log of percentage parent remaining versus time of incubation. […]

Row | SMILES | microsomal CLint at 0.5 µM
1 | Clc1ccc([C@]23CN[C@H](CO2)C3)cc1Cl (single isomer, unassigned) [516A] | 167 µL/min/mg
2 | CNC(C)Cc1ccc2c(c1)OCO2 (stereo not shown) [MDMA, reference compound] | 171 µL/min/mg
3 | Clc1ccc(C23CNC(CO2)C3)cc1Cl (stereo not shown) [522A, 1-(3,4-dichlorophenyl)-2-oxa-5-azabicyclo[2.2.1]heptane] | 83 µL/min/mg
4 | Clc1ccc([C@@]23CN[C@@H](CO2)C3)cc1Cl (single isomer, unassigned) [518A] | 268 µL/min/mg
